Experimental data: patent US4503056A, “1-(Pyridazinyl)pyrazoline derivatives” (Abbott Laboratories, priority 1982, dated 1985)

Legend:
dermal Arthus reaction = test: reverse passive Arthus reaction test; assay type: in vivo, Male Sprague-Dawley rats; details: rats; 100 mg/kg oral, 30 min before intradermal Anti-B.S.A.; lesion measured 4 hours later; reduction in lesion area vs control
Procedure: Proc. 35, 774 (1976). Each compound was administered orally to a group of four animals.
The reverse passive Arthus reaction test in rats is conducted as follows: Male Sprague-Dawley rats weighing approximately 130-160 g. are used, 4 rats per group. All animals are injected intravenously with 0.5 ml. 0.075% Bovine Serum Albumin (B.S.A.)+2% Evans Blue solution. Each rat then receives an oral dose of drug; one drug is administered per group.
Thirty minutes subsequent to drug dosing, each animal is injected intradermally with 0.05 ml. 1.44% Anti-B.S.A. into the dorsal skin. Four hours later the animals are sacrificed, the dorsal skin reflexed, and the lesion excised. Two perpendicular diameters of each lesion are measured. The average diameters of the lesions from the treated groups are compared with the average diameters from the control group to determine any drug effect.

carrageenin pleurisy = test: modification of the carrageenin pleurisy assay (Vinegar et al.); assay type: in vivo; details: Dose 100 (dose unit not given); for % Inhibition, Volume exudates: reduction in accumulation of exudate volume; for % Inhibition, Cells: reduction in accumulation of leukocytes
From the text: The anti-inflammatory activity of these compounds was established by using a modification of the carrageenin pleurisy assay described by Vinegar et al. Proc. Soc. Exp. Biol. Med. 143:711 (1973).

Row | Structure (SMILES) | % Inhibition of lesion of dermal Arthus reaction (dermal Arthus reaction) | % Inhibition, Volume exudates (carrageenin pleurisy) [%] | % Inhibition, Cells (carrageenin pleurisy) [%]
1 | CC1CC(N)=NN1c1ccc(-c2ccccc2)nn1 (stereo not drawn) [1-[6'-phenylpyridazin-3'-yl]-3-amino-5-methylpyrazol-2-ene] | 54% | – | –
2 | NC1=NN(c2ccc(-c3ccccc3Cl)nn2)CC1 [1-[6'-(ortho-chlorophenyl)-pyridazin-3'-yl]-3-aminopyrazol-2-ene] | 58% | – | –
3 | NC1=NN(c2ccc(-c3cccc(Cl)c3)nn2)CC1 [1-[6'-(meta-chlorophenyl)pyridazin-3'-yl]-3-aminopyrazol-2-ene] | 51% | – | –
4 | CCCCC1C(=O)N(c2ccccc2)N(c2ccccc2)C1=O [Phenylbutazone, reference compound] | inactive | 59 | 13
5 | NC1=NN(c2ccc(-c3ccccc3)nn2)CC1 [1-[6'-Phenylpyridazin-3'-yl]-3-aminopyrazol-2-ene] | 65% | 73 | 51
